In brackets after ≈: the same amount, converted by molar mass.
Experiments:
T-cell = test: Cytotoxicity against mouse T-lymphocyte cells by MTT assay; type: functional, cell-based
[1] = Cytotoxicity against mouse LB3 cells by MTT assay; type: functional, cell-based
EL4 = test: Cytotoxicity against mouse EL4 cells by MTT assay; type: functional, cell-based
T98G = test: Induction of apoptosis in human T98G cells relative to control; type: functional
MDA-MB-231 [2] = test: Antiproliferative activity against human MDA-MB-231 cells incubated for 96 hrs by MTT assay; settings: MDA-MB-231, 96 h
Steryl-sulfatase = Steryl-sulfatase (Homo sapiens, UniProt P08842); test: Inhibition of STS in human placental microsome; type: microsomes
Sequence of Steryl-sulfatase (P08842 whole entry): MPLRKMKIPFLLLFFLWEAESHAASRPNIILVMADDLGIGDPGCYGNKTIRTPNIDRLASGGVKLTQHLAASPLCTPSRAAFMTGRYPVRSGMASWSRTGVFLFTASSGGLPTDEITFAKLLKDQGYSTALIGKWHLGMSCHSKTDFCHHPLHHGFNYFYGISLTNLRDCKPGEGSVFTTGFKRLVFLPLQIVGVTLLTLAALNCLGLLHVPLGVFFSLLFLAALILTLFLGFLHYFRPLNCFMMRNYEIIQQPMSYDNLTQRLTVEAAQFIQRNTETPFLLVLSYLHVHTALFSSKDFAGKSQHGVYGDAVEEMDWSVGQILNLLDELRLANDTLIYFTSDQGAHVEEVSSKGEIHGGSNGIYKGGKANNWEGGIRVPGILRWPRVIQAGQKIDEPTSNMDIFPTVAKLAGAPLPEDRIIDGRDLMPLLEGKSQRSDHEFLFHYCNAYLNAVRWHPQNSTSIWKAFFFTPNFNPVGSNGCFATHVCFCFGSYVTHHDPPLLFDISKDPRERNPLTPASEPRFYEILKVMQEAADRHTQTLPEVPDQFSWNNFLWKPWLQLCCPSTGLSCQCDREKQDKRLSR

HepG2 [3] = test: Induction of apoptosis in human HepG2 cells assessed as necrotic cells at 2 times IC50 incubated for 12 hrs by annexin V-FITC and PI staining based flow cytometry analysis relative to control; type: functional
HepG2 [4] = test: Induction of apoptosis in human HepG2 cells assessed as necrotic cells at 1 time IC50 incubated for 12 hrs by annexin V-FITC and PI staining based flow cytometry analysis relative to control; type: functional
A549 = test: Cytotoxicity against human A549 cells assessed as inhibition of cell growth by MTT assay; type: functional, cell-based
MCF7 [5] = test: Cytotoxicity against human MCF7 cells assessed as inhibition of cell growth by MTT assay; type: functional, cell-based
[6] = Cytotoxicity against human BEAS-2B cells assessed as inhibition of cell growth by MTT assay; type: toxicity, cell-based
Carbonic anhydrase 1 = Carbonic anhydrase 1 (Homo sapiens, UniProt P00915); test: Binding affinity to human CA1 assessed as inhibition constant incubated for 6 hrs by phenol red dye based stopped flow CO2 hydration assay
Sequence of Carbonic anhydrase 1 (P00915 whole entry): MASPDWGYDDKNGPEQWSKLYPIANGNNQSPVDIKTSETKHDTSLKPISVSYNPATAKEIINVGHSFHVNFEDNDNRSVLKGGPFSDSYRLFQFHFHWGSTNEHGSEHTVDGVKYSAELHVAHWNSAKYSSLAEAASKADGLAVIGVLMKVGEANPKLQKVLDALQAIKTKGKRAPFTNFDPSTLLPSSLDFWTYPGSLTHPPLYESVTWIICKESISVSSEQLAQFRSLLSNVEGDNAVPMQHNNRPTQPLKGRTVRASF

KB = test: Antiproliferative activity against human KB cells measured after 48 hrs by MTT assay; type: functional, cell-based
MCF7 [7] = test: Antiproliferative activity against human MCF7 cells measured after 72 hrs by MTT assay; type: functional, cell-based; settings: MCF7, 72 h
[8] = Inhibition of DNA topoisomerase II (unknown origin)
HCT-116 [9] = test: Cytotoxicity against human HCT-116 cells incubated for 2 days by Neutral Red staining based assay; type: functional, cell-based; settings: HCT-116, 48 h
HepG2 [10] = test: Cytotoxicity against human HepG2 cells incubated for 2 days by Neutral Red staining based assay; type: functional, cell-based; settings: HepG2, 48 h
HepG2 [11] = test: Induction of apoptosis in human HepG2 cells at 2 times IC50 incubated for 24 hrs by annexin V-FITC and PI staining based flow cytometry analysis relative to control; type: functional
HepG2 [12] = test: Induction of apoptosis in human HepG2 cells assessed as necrotic cells at 2 times IC50 incubated for 24 hrs by annexin V-FITC and PI staining based flow cytometry analysis relative to control; type: functional
HepG2 [13] = test: Induction of apoptosis in human HepG2 cells at 1 time IC50 incubated for 24 hrs by annexin V-FITC and PI staining based flow cytometry analysis relative to control; type: functional
HepG2 [14] = test: Induction of apoptosis in human HepG2 cells assessed as necrotic cells at 1 time IC50 incubated for 24 hrs by annexin V-FITC and PI staining based flow cytometry analysis relative to control; type: functional
[15] = Cytotoxicity against African green monkey Vero cells incubated for 2 days by Neutral Red staining based assay; type: toxicity, cell-based, Chlorocebus sabaeus
SK-LU-1 = test: Cytotoxicity against human SK-LU-1 cells incubated for 2 days by Neutral Red staining based assay; type: functional, cell-based; settings: SK-LU-1, 48 h
HepG2 [16] = test: Antiproliferative activity against human HepG2 cells measured after 72 hrs by SRB method; type: functional, cell-based; settings: HepG2, 72 h
HCT-116 [17] = test: Antiproliferative activity against human HCT-116 cells measured after 72 hrs in presence of paclitaxel by SRB method; type: functional, cell-based; settings: HCT-116, 72 h
MCF7 [18] = test: Antiproliferative activity against human MCF7 cells measured after 72 hrs by SRB method; type: functional, cell-based; settings: MCF7, 72 h
HCT-116 [19] = test: cells; settings: Homo sapiens, HCT-116, 72 h
Description: Antiproliferative activity against human HCT-116 cells measured after 72 hrs by SRB method

HeLa [20] = test: Antiproliferative activity against human HeLa cells measured after 72 hrs by SRB method; type: functional, cell-based
Caco-2 [21] = test: Antiproliferative activity against human Caco-2 cells measured after 72 hrs in presence of paclitaxel by SRB method; type: functional, cell-based; settings: Caco-2, 72 h
Caco-2 [22] = test: Antiproliferative activity against human Caco-2 cells measured after 72 hrs by SRB method; settings: Caco-2, 72 h
MCF7 [23] = test: Cytotoxicity against human MCF-7 cells relative to control; type: functional
MCF7 [24] = test: Cytotoxicity against human MCF-7 cells; type: functional, cell-based
[25] = molecular target: Vascular endothelial growth factor receptor 2 (Homo sapiens, UniProt P35968); test: Inhibition of VEGFR2 (unknown origin)
Sequence of Vascular endothelial growth factor receptor 2 (P35968 whole entry): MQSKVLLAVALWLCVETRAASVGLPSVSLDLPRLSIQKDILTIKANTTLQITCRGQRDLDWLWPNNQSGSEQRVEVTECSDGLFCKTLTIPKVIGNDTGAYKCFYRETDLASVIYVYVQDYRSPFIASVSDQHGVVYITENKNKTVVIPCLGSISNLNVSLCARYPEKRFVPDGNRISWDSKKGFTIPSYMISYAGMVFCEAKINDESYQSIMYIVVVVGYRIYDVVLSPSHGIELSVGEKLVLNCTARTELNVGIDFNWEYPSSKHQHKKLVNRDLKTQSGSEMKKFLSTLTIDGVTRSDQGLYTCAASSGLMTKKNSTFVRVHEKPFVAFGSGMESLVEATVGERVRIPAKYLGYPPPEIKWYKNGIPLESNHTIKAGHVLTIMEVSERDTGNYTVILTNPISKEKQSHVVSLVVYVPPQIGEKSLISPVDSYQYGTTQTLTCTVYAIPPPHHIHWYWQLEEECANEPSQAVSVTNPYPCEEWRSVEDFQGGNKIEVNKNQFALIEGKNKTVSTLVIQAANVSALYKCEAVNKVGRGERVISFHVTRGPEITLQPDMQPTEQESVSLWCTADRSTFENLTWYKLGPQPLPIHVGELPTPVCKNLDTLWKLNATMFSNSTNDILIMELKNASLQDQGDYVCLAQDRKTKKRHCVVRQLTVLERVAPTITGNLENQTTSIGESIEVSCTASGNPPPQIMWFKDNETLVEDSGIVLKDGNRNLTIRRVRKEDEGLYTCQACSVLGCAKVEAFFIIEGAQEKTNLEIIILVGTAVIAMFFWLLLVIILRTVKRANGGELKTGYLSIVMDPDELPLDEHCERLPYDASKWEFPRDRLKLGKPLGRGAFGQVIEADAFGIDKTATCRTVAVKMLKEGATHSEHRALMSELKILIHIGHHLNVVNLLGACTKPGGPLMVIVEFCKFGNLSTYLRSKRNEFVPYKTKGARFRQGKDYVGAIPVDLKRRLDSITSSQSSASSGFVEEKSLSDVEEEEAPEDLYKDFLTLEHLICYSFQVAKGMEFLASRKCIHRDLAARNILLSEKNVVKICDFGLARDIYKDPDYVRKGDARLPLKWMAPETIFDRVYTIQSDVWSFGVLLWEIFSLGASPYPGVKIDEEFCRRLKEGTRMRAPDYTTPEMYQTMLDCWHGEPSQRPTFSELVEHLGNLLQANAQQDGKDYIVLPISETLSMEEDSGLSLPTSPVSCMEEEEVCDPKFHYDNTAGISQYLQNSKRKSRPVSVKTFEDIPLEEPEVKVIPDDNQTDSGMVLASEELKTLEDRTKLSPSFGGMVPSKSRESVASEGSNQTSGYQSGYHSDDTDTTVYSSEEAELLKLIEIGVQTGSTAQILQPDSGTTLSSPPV

MDA-MB-231 [26] = test: Cytotoxicity against human MDA-MB-231 cells by MTT assay; type: functional, cell-based
MCF7 [27] = test: Cytotoxicity against human MCF7 cells by MTT assay; type: functional, cell-based
Tubulin = test: Inhibition of tubulin polymerization (unknown origin) by spectrophotometric method; type: protein-complex assay, Homo sapiens
HeLa [28] = test: Antiproliferative activity against human HeLa cells; type: functional, cell-based
[29] = molecular target: Bromodomain-containing protein 4 (Homo sapiens, UniProt O60885); test: Inhibition of BRD4 (unknown origin)
RT-4 = test: Cytotoxicity against human RT-4 cells assessed as inhibition of cell growth; type: functional, cell-based
LCLC-103H cell line = test: Cytotoxicity against human LCLC-103H cell line assessed as inhibition of cell growth; type: functional, cell-based
A-427 = test: Cytotoxicity against human A-427 cells assessed as inhibition of cell growth; type: functional, cell-based
HeLa [30] = test: Antiproliferative activity against human HeLa cells incubated for 24 hrs by MTT assay; type: functional, cell-based
CCRF-CEM = test: Antiproliferative activity against human CCRF-CEM cells assessed as reduction in cell viability measured after 24 hrs by MTT assay relative to control; type: functional; settings: pooled result: one value given for 6 cell lines, strains, targets or settings
MDA-MB-231 [31] = test: Inhibition of cell invasion in human MDA-MB-231 cells at 100 uM measured after 24 hrs by crystal violet staining based microscopy analysis relative to control; type: functional
Carbonic anhydrase 2 = Carbonic anhydrase 2 (Homo sapiens, UniProt P00918); test: Binding affinity to human CA2 assessed as inhibition constant incubated for 6 hrs by phenol red dye based stopped flow CO2 hydration assay
[32] = Induction of autophagy in human MOG-G-CCM cells relative to control; type: functional
[33] = Induction of apoptosis in human MOG-G-CCM cells relative to control; type: functional

Structure (SMILES): O=C(CCCCCNC(=O)c1cc(C(=O)NCCCCCC(=O)Nc2ccc(-c3c(-c4ccc(OCCN5CCCCC5)cc4)c4ccc(OCCN5CCCCC5)cc4oc3=O)cc2)cc(C(=O)NCCCCCC(=O)Nc2ccc(-c3c(-c4ccc(OCCN5CCCCC5)cc4)c4ccc(OCCN5CCCCC5)cc4oc3=O)cc2)c1)Nc1ccc(-c2c(-c3ccc(OCCN4CCCCC4)cc3)c3ccc(OCCN4CCCCC4)cc3oc2=O)cc1
- IC50 (T-cell): 10 µM
- IC50 [1]: 10 µM
- IC50 (EL4): 10 µM

Structure (SMILES): O=c1cc(O)c2ccccc2o1 [4-HYDROXYCOUMARINS]
- Activity (T98G): 15%
- IC50 (MDA-MB-231 [2]): > 100 µM

Structure (SMILES): Cc1c(Cc2ccccc2)c(=O)oc2cc(OS(N)(=O)=O)ccc12
- IC50 (Steryl-sulfatase): 0.032 µM

Structure (SMILES): COc1c2c(cc3oc(=O)ccc13)OC(C)(C)C=C2 [XANTHOXYLETIN]
- Activity (HepG2 [3]): 2.9%
- Activity (HepG2 [4]): 2.5%

Structure (SMILES): C/C(=N\Cc1ccc(O)cc1)c1c(O)c2ccccc2oc1=O
- IC50 (A549): 6.09 µg/mL (≈ 19.7 µM)
- IC50 (MCF7 [5]): 1.41 µg/mL (≈ 4.56 µM)
- IC50 [6]: 4.08 µg/mL (≈ 13.2 µM)

Structure (SMILES): Cc1cc(=O)oc2cc(OCc3cn(CCCCCCCCCCCCOc4ccc5ccc(=O)oc5c4)nn3)ccc12
- Ki (Carbonic anhydrase 1): > 10 µM

Structure (SMILES): O=c1ccc2ccc(O)cc2o1 [UMBELLIFERONE]
- Activity (T98G): 15%
- IC50 (KB): 200 µM

Structure (SMILES): O=c1ccc2cc(O)c(O)cc2o1 [ESCULETIN]
- IC50 (MCF7 [7]): 193 µM

Structure (SMILES): COc1cccc2c1C(=O)c1c(O)c3c(c(O)c1C2=O)C[C@@](O)(C(=O)CO)C[C@@H]3O[C@H]1C[C@H](N)[C@H](O)[C@H](C)O1 [DOXORUBICIN]
- IC50 (MDA-MB-231 [2]): 0.6 µM
- IC50 [8]: 9.65 µM

Structure (SMILES): C=CC(C)(C)c1cc2c(O)c3c(c(C(C)(C)C=C)c2oc1=O)OC(C)(C)C=C3 [CLAUSARIN]
- IC50 (HCT-116 [9]): 44.6 µM
- Activity (HepG2 [3]): 27.4%
- IC50 (HepG2 [10]): 7.6 µM
- Activity (HepG2 [11]): 64.2%
- Activity (HepG2 [12]): 2.7%
- Activity (HepG2 [13]): 49.7%
- Activity (HepG2 [4]): 6.8%
- Activity (HepG2 [14]): 1.6%
- IC50 at 2 days [15]: 78.2 µM
- IC50 (SK-LU-1): 6.9 µM

Structure (SMILES): COc1cc(C)c2oc(=O)c(C)c3c2c1[C@@H](C)CO3
- IC50 (HepG2 [16]): 0.74 µM
- IC50 (HCT-116 [17]): 0.0051 µM
- IC50 (MCF7 [18]): 0.74 µM
- IC50 (HCT-116 [19]): 0.74 µM
- IC50 (HeLa [20]): 0.74 µM
- IC50 (Caco-2 [21]): 0.13 µM

Structure (SMILES): CC(=O)O[C@H]1C(=O)[C@@]2(C)[C@H]([C@H](OC(=O)c3ccccc3)[C@]3(O)C[C@H](OC(=O)[C@H](O)[C@@H](NC(=O)c4ccccc4)c4ccccc4)C(C)=C1C3(C)C)[C@]1(OC(C)=O)CO[C@@H]1C[C@@H]2O [PACLITAXEL]
- IC50 (HCT-116 [19]): 0.0279 µM
- IC50 (Caco-2 [22]): 2.1 µM

Structure (SMILES): COC(=O)C(Cc1ccc(O)cc1)NC(=O)c1cc2ccccc2oc1=O (centres undefined)
- Activity (MCF7 [23]): 97.82%
- IC50 (MCF7 [24]): 4.98 µM
- IC50 [8]: 8.6 µM
- IC50 [25]: 34.2 µM

Structure (SMILES): COc1ccc2c3c(c(=O)oc2c1)CC(C(C)(O)CC/C=C(\C)CCC=C(C)C)O3 (centres undefined)
- IC50 (MDA-MB-231 [26]): 15.6 µM
- IC50 (MCF7 [27]): 19.8 µM
- IC50 (Tubulin): 9.2 µM

Structure (SMILES): Cc1c(C(C)C)c(=O)oc2cc(O)cc(O)c12
- IC50 (HeLa [28]): 8 µM

Structure (SMILES): O=c1ccc2ccc(O)c(O)c2o1 [DAPHNETIN]
- IC50 (MCF7 [7]): 73 µM

Structure (SMILES): CCS(=O)(=O)Nc1ccc(Oc2ccccc2OC)c(-c2ccc3oc(=O)cc(OC)c3c2)c1
- IC50 [29]: 0.099 µM

Structure (SMILES): CCN(CC)c1ccc2cc(-c3nc4ccccc4o3)c(=N)oc2c1
- IC50 (RT-4): < 0.01 µM
- IC50 (LCLC-103H cell line): < 0.01 µM
- IC50 (A-427): < 0.01 µM

Structure (SMILES): CC(C)=CC[C@@H](OCCc1ccc(C(=O)/N=C/c2c(Cl)c3ccccc3oc2=O)cc1)C1=CC(=O)c2c(O)ccc(O)c2C1=O
- IC50 (HeLa [30]): 3.25 µM

Structure (SMILES): COC(=O)C(CCSC)NC(=O)CCNC(=O)c1cc2ccccc2oc1=O (centres undefined)
- Activity (MCF7 [23]): 97.35%
- IC50 (MCF7 [24]): 5.85 µM
- IC50 [8]: 4.1 µM
- IC50 [25]: 23.6 µM

Structure (SMILES): O=C(COc1ccccc1)Nc1ccc2oc(=O)ccc2c1
- Activity (CCRF-CEM): 61%

Structure (SMILES): COc1ccc2ccc(=O)oc2c1CC=C(C)C [OSTHOLE]
- inhibition at 100 µM (MDA-MB-231 [31]): 97.6%

Structure (SMILES): Cc1cc(=O)oc2cc(OCc3cn(CCCCCCCCCCOc4ccc5ccc(=O)oc5c4)nn3)ccc12
- Ki (Carbonic anhydrase 1): > 10 µM
- Ki (Carbonic anhydrase 2): > 10 µM

Structure (SMILES): CNC(=O)c1cc(Oc2ccc(NC(=O)Nc3ccc(Cl)c(C(F)(F)F)c3)cc2)ccn1 [SORAFENIB]
- Activity [32]: 1%
- Activity [33]: 25%

Structure (SMILES): Cc1c2c3c(ccc(C)c3oc1=O)[C@](C)(O)CO2
- IC50 (HepG2 [16]): 3.95 µM
- IC50 (MCF7 [18]): 3.95 µM
- IC50 (HCT-116 [19]): 3.95 µM
- IC50 (HeLa [20]): 3.95 µM

Structure (SMILES): CCCCCCc1c(C)c2ccc(OS(N)(=O)=O)cc2oc1=O
- IC50 (Steryl-sulfatase): 0.008 µM

— ChEMBL document CHEMBL5512619, “Anticancer mechanism of coumarin-based derivatives” (Eur J Med Chem, 2024)
